Test results reported in ChEMBL document CHEMBL1136592, “Orally efficacious NR2B-selective NMDA receptor antagonists” (Bioorg Med Chem Lett, 2003).

Experiments:
[1] = target: T1, Glutamate receptor ionotropic, NMDA 2B (Homo sapiens, UniProt Q05586+Q13224); experiment: Displacement of NMDA receptor-specific [3H]ifenprodil binding to recombinant human NMDA receptor, NR2B subtype expressed in L cells; assay type: cell-based
[2] = Bioavailability in rat; assay type: ADME, organism-based; conditions: in vivo
[3] = target: Glutamate receptor ionotropic, NMDA 2A (Homo sapiens, UniProt Q05586+Q12879); experiment: Inhibition of the response to NMDA glutamate/glycine receptor NR2A subtype was determined using FLIPR assay
Rattus norvegicus = experiment: Efficacy was determined by scoring behavioral responses to noxious stimuli in carrageenan-induced hyperalgesia assay in the rat after oral administration; assay type: functional
[4] = Half life period in rat; assay type: ADME, organism-based; conditions: in vivo
[5] = target: T1, Glutamate receptor ionotropic, NMDA 2B; experiment: Inhibition of the response to NMDA glutamate/glycine receptor NR2B subtype was determined using FLIPR assay

Chain of Glutamate receptor ionotropic, NMDA 2A (Q12879 whole entry, one chain of several): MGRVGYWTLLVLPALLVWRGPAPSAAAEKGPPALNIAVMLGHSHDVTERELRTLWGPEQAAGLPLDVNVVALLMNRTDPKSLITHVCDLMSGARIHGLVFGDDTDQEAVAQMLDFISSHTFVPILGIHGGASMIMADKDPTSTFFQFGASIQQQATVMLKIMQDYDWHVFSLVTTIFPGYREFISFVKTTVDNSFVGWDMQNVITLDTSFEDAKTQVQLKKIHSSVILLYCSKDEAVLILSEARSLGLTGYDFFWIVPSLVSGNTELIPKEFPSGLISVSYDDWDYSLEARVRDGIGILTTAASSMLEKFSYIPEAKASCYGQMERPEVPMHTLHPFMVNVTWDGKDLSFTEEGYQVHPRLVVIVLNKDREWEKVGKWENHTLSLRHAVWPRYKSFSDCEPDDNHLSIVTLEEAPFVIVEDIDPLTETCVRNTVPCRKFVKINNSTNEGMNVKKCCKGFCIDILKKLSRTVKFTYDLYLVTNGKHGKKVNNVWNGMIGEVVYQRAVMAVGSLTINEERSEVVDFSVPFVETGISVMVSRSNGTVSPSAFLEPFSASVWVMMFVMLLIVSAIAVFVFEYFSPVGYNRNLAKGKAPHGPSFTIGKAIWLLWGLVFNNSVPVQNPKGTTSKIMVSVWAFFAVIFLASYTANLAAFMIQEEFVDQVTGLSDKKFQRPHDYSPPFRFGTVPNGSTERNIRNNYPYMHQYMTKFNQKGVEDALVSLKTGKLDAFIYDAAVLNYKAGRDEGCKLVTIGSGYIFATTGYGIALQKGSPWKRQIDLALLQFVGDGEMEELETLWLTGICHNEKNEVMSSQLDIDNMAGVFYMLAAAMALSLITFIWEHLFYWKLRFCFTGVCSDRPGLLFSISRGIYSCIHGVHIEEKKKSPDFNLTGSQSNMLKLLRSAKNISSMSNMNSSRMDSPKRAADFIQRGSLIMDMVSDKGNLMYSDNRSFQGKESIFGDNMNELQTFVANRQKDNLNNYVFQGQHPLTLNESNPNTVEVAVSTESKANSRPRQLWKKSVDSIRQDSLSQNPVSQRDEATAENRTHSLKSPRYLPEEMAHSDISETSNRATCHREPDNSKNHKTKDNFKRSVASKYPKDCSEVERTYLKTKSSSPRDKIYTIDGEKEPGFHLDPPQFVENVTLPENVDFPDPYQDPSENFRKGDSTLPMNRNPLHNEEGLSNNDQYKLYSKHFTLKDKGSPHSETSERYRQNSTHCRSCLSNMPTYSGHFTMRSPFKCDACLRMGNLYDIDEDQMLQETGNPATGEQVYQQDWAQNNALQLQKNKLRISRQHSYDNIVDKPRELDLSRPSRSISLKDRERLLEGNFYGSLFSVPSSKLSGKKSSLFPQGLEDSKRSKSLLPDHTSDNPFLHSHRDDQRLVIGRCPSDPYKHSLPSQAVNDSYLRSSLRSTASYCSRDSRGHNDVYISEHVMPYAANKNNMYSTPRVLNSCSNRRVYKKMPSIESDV
T1 sequence (Q13224 whole entry, one chain of several): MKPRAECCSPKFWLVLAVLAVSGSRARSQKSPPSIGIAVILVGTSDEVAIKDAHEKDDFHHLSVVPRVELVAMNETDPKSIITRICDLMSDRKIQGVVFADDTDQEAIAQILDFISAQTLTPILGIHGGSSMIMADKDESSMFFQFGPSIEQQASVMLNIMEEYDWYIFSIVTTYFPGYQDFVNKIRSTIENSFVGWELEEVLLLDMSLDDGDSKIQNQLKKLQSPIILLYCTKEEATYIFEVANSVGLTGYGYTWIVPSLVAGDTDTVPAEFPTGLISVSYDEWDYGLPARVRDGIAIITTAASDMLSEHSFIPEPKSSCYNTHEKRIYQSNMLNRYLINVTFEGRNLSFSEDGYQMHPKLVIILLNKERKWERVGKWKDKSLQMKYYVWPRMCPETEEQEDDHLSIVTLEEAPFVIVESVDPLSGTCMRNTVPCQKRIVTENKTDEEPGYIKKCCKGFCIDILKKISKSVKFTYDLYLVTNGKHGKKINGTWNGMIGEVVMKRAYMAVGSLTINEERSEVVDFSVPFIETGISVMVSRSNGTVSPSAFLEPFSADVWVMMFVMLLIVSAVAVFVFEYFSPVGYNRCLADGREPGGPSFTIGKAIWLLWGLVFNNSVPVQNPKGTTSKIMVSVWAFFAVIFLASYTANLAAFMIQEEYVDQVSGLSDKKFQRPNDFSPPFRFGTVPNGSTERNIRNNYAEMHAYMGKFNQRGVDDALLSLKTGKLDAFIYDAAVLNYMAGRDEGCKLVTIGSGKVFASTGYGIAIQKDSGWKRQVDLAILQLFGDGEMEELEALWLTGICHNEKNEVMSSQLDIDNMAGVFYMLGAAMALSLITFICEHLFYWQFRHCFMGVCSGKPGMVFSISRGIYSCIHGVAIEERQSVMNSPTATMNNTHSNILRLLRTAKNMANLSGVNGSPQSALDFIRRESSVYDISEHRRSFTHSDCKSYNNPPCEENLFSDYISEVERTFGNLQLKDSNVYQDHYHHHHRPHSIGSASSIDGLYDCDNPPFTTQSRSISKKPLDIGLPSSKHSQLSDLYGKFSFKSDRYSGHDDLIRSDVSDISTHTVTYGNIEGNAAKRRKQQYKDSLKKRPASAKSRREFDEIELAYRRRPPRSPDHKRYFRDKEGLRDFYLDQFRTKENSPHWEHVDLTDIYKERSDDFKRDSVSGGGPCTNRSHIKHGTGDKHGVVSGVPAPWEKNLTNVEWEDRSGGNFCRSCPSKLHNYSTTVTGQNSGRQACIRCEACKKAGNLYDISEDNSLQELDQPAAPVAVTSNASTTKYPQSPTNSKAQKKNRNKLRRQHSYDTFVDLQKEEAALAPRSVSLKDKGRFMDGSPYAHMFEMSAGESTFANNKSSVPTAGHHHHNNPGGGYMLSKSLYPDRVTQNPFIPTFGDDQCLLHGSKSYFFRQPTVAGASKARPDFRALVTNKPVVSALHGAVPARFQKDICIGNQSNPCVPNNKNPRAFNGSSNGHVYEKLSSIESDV

Row | Ki [1] [nM] | bioavailability [2] [%] | IC50 [3] [nM] | half-life [4] [h] | IC50 [5] [nM] | SMILES | ED50 (Rattus norvegicus) [mg/kg]
1 | 9 | – | – | – | – | N=C(/C=C/c1ccccc1)NCc1ccccc1 | –
2 | 72 | 100 | > 10000 | 2.45 | 47 | NC(=NCc1ccccc1C(F)(F)F)c1ccc(OC(F)(F)F)cc1 | 5.5
3 | 480 | – | – | – | 360 | N=C(NCc1ccccc1)c1ccc(C(F)(F)F)cc1 | –
4 | 20 | – | – | – | 32 | NC(=NCc1cccc(Cl)c1)c1ccc(C(F)(F)F)cc1 | –
5 | 5.7 | – | – | – | 4.1 | COc1ccccc1C/N=C(\N)c1ccc(OC(F)(F)F)cc1 | –
6 | 1.2 | 4 | > 10000 | 1.53 | 4.2 | Cc1cc(C)cc(C/N=C(\N)c2ccc(OC(F)(F)F)cc2)c1 | > 30
7 | 16 | 44 | > 10000 | 1.5 | 110 | NC(=NCc1cccc(Cl)c1)c1ccc(Cl)c(Cl)c1 | 14
8 | 600 | – | – | – | 450 | N=C(NCc1cccc(Cl)c1)c1ccc(F)cc1 | –
9 | 1100 | – | – | – | – | COc1ccc(C/N=C(\N)c2ccc(OC(F)(F)F)cc2)cc1 | –
10 | 0.6 | 68 | > 10000 | 7 | 24 | N=C(NCc1cc(Cl)cc(Cl)c1)c1ccc(OC(F)(F)F)cc1 | 16
11 | 120 | – | – | – | 46 | N=C(NCc1ccccc1)c1ccc(OC(F)(F)F)cc1 | –
12 | 63 | – | – | – | 160 | N=C(NCc1cccc(Cl)c1)c1ccc(Cl)cc1 | –
13 | 12 | 31 | > 10000 | 3.05 | 57 | N=C(NCc1ccccc1OC(F)(F)F)c1ccc(Cl)c(Cl)c1 | 7.5
14 | 970 | – | – | – | 720 | NC(=NCc1ccccc1)c1ccc(Cl)cc1 | –
15 | 3.9 | – | – | – | 8.7 | Cc1cc(C)cc(C/N=C(\N)c2ccc(C(F)(F)F)cc2)c1 | –
16 | 800 | – | – | – | 420 | NC(=NCc1cccc(Cl)c1)c1cccc(Cl)c1 | –
17 | 700 | – | – | – | 660 | N=C(NCc1cccc(C(F)(F)F)c1)c1ccc(C(F)(F)F)cc1 | –
18 | 1800 | – | – | – | – | N=C(NCc1ccccc1)c1ccc(-c2ccccc2)cc1 | –
19 | 3900 | – | – | – | – | NC(=NCc1cccc(Cl)c1)c1ccccc1Cl | –
20 | 23 | – | – | – | 9.7 | COc1cccc(C/N=C(\N)c2ccc(OC(F)(F)F)cc2)c1 | –
21 | > 15000 | – | – | – | – | NC(=NCc1ccccc1)c1ccccc1 | –
22 | 2000 | – | – | – | – | N=C(NCc1cccc(Cl)c1)c1cccc(F)c1 | –
23 | 56 | – | – | – | 48 | N=C(NCc1ccccc1Cl)c1ccc(C(F)(F)F)cc1 | –

Row | SMILES | Ki [1] [nM] | bioavailability [2] [%] | IC50 [3] [nM] | half-life [4] [h] | IC50 [5] [nM] | ED50 (Rattus norvegicus) [mg/kg]
24 | NC(=NCc1cccc(Cl)c1)c1ccccc1F | > 15000 | – | – | – | – | –
